From patent US8133847B2, “Pyrido[2,3-B]pyrazine derivatives useful as herbicidal compounds” (Syngenta Limited, priority 2006, dated 2012)

Columns and labels:
Experiment in all cases: Example B2 herbicidal action, post-emergence, pots in glasshouse
Assay type in all cases: in vivo
[1] = tested on: Amaranthus retroflexus (AMARE); details: Application post-emergence, evaluated after 13 days (100=total damage to plant; 0=no damage to plant)
Procedure: (§1) Seeds of a variety of test species were sown in standard soil in pots. After 8 days cultivation (post-emergence) under controlled conditions in a glasshouse (at 24/16° C., day/night; 14 hours light; 65% humidity), the plants were sprayed with an aqueous spray solution derived from the formulation of the technical active ingredient in acetone/water (50:50) solution containing 0.5% Tween 20 (polyoxyethylene sorbitan monolaurate, CAS RN 9005-64-5). The test plants were then grown in a glasshouse under controlled conditions in a glasshouse (at 24/16° C., day/night; 14 hours light; 65% humidity) and watered twice daily. After 13 days, the test was evaluated (100=total damage to plant; 0=no damage to plant).

[2] = tested on: Setaria faberi (SETFA); details: Application post-emergence, evaluated after 13 days (100=total damage to plant; 0=no damage to plant)
Procedure: as §1

[3] = tested on: Solanum nigrum (SOLNI); details: Application post-emergence, evaluated after 13 days
Procedure: as §1

[4] = tested on: Echinochloa crusgalli (ECHCG); details: Application post-emergence, evaluated after 13 days (100=total damage to plant; 0=no damage to plant)
Procedure: as §1

[5] = tested on: Ipomea hederaceae (IPOHE); details: Application post-emergence, evaluated after 13 days (100=total damage to plant; 0=no damage to plant)
Procedure: as §1

Structure (SMILES)	damage to plant, Amaranthus retroflexus (AMARE) [1]	damage to plant, Setaria faberi (SETFA) [2]	damage to plant, Solanum nigrum (SOLNI) [3]	damage to plant, Echinochloa crusgalli (ECHCG) [4]	damage to plant, Ipomea hederaceae (IPOHE) [5]
Cc1ccc(C)c(-c2c(OC(=O)C(C)(C)C)c3nccnc3n(C)c2=O)c1 [Compound C134]	9	2	10	0	6
CCn1c(=O)c(-c2cc(C)ccc2C)c(OC(=O)C(C)(C)C)c2nccnc21 [Compound C135]	8	0	10	2	0
Cn1c(=O)c(-c2c(Cl)cc(OC(F)(F)F)cc2Cl)c(OC(=O)C(C)(C)C)c2nccnc21 [Compound C138]	8	4	8	2	8
CCn1c(=O)c(-c2c(Cl)cc(OC(F)(F)F)cc2Cl)c(OC(=O)C(C)(C)C)c2nccnc21 [Compound C139]	10	10	10	10	10
Cn1c(=O)c(-c2ccc(C(F)(F)F)cc2[N+](=O)[O-])c(OC(=O)C(C)(C)C)c2nccnc21 [Compound C140]	8	0	9	3	2
CC(C)C(=O)Oc1c(-c2cc(F)ccc2Cl)c(=O)n(C)c2nccnc12 [Compound C142]	10	7	10	8	9
Cn1c(=O)c(-c2cc(F)ccc2Cl)c(OC(=O)C(C)(C)C)c2nccnc21 [Compound C143]	10	8	10	7	9
CC(C)C(=O)Oc1c(-c2c(F)ccc(Br)c2Cl)c(=O)n(C)c2nccnc12 [Compound C144]	10	2	10	4	9
Cn1c(=O)c(-c2c(F)ccc(Br)c2Cl)c(OC(=O)C(C)(C)C)c2nccnc21 [Compound C145]	7	0	9	1	6
Cn1c(=O)c(-c2ccccc2Br)c(OC(=O)C(C)(C)C)c2nccnc21 [Compound C146]	9	6	8	5	7
CCn1c(=O)c(-c2ccc(C(F)(F)F)cc2Br)c(OC(=O)C(C)(C)C)c2nccnc21 [Compound C147]	2	0	4	0	2
CC(C)C(=O)Oc1c(-c2cc(F)c(Cl)cc2Cl)c(=O)n(C)c2nccnc12 [Compound C148]	9	4	6	6	7
Cn1c(=O)c(-c2cc(F)c(Cl)cc2Cl)c(OC(=O)C(C)(C)C)c2nccnc21 [Compound C149]	9	3	7	3	5
CCn1c(=O)c(-c2cc(F)ccc2Cl)c(OC(=O)C(C)C)c2nccnc21 [Compound C150]	10	6	10	3	9
CCn1c(=O)c(-c2cc(F)ccc2Cl)c(OC(=O)C(C)(C)C)c2nccnc21 [Compound C151]	7	0	6	0	4
CCn1c(=O)c(-c2cc(F)c(Cl)cc2Cl)c(OC(=O)C(C)C)c2nccnc21 [Compound C152]	10	2	9	4	6
CCn1c(=O)c(-c2cc(F)c(Cl)cc2Cl)c(OC(=O)C(C)(C)C)c2nccnc21 [Compound C153]	9	1	8	1	5
CCn1c(=O)c(-c2c(F)ccc(Br)c2Cl)c(OC(=O)C(C)C)c2nccnc21 [Compound C154]	10	0	10	3	9
CCn1c(=O)c(-c2c(F)ccc(Br)c2Cl)c(OC(=O)C(C)(C)C)c2nccnc21 [Compound C155]	10	0	10	3	9
COc1ccc(OC(F)(F)F)cc1-c1c(OC(=O)C(C)C)c2nccnc2n(C)c1=O [Compound C159]	9	7	8	9	2
CCn1c(=O)c(-c2cc(OC(F)(F)F)ccc2OC)c(OC(=O)C(C)C)c2nccnc21 [Compound C160]	10	6	9	8	7
Cn1c(=O)c(-c2cc(F)c(F)cc2Cl)c(OC(=O)C(C)(C)C)c2nccnc21 [Compound C162]	9	7	10	8	7
Cn1c(=O)c(-c2c(F)ccc(Cl)c2Cl)c(OC(=O)C(C)(C)C)c2nccnc21 [Compound C163]	6	0	9	1	9
CC(C)C(=O)Oc1c(-c2ccccc2OC(F)F)c(=O)n(C)c2nccnc12 [Compound C164]	9	4	8	3	8
CCn1c(=O)c(-c2ccccc2OC(F)F)c(OC(=O)C(C)C)c2nccnc21 [Compound C165]	9	2	10	1	7
